Drawing on ChEMBL document CHEMBL3046623, “A search of novel antimicrobial based on benzimidazole and 2-pyridone heterocycles” (2012), this text covers MIC99 for 13 molecules.

Holding throughout (type): functional
One assay has as its system Aspergillus clavatus. The experiment in a line: Antifungal activity against Aspergillus clavatus MTCC 1323 after 72 hr. The note with it: MTCC 1323, 72 h.
A further assay deals with Aspergillus niger. The experiment in a line: Antifungal activity against Aspergillus niger MTCC 282 after 72 hr. The note with it: MTCC 282, 72 h.
The test system of a further assay is Candida albicans. Briefly: Antifungal activity against Candida albicans MTCC 227 after 72 hr. The note with it: MTCC 227, 72 h.
In a further assay the test system is Streptococcus pyogenes. The experiment in a line: Antibacterial activity against Streptococcus pyogenes MTCC 442 after 24 to 48 hr by serial dilution method.
Another assay relates to Staphylococcus aureus. Briefly: Antibacterial activity against Staphylococcus aureus MTCC 96 after 24 to 48 hr by serial dilution method.
The next assay deals with Pseudomonas aeruginosa. The experiment in a line: Antibacterial activity against Pseudomonas aeruginosa MTCC 1688 after 24 to 48 hr by serial dilution method.
A further assay deals with Escherichia coli. Briefly: Antibacterial activity against Escherichia coli MTCC 443 after 24 to 48 hr by serial dilution method.

Values after ≈ are worked out from the molar mass of the structure shown.

The MIC99 is an inhibitory concentration at the 99% level, which refers to growth in some studies and to a panel of isolates in others. Read a low MIC99 as higher susceptibility. Turning to `C/C(=N\n1c(/N=C/c2cccc([N+](=O)[O-])c2)c(C#N)c(-c2ccccc2O)c(C#N)c1=O)c1nc2ccccc2[nH]1`, the MIC99 in the assay on Aspergillus clavatus is 1000 µg/mL (≈ 1840 µM); against Aspergillus niger it was 1000 µg/mL (≈ 1840 µM); against Candida albicans, 500 µg/mL (≈ 922 µM); in the assay with Streptococcus pyogenes, 200 µg/mL (≈ 369 µM); in the assay on Staphylococcus aureus, 200 µg/mL (≈ 369 µM); in the assay with Pseudomonas aeruginosa it was 500 µg/mL (≈ 922 µM). This molecule also yielded an MIC99 in the assay on Escherichia coli of 500 µg/mL (≈ 922 µM).
As to `C/C(=N\n1c(/N=C/c2ccc([N+](=O)[O-])cc2)c(C#N)c(-c2ccccc2O)c(C#N)c1=O)c1nc2ccccc2[nH]1`, the MIC99 against Aspergillus clavatus came out at 1000 µg/mL (≈ 1840 µM); in the assay with Aspergillus niger, 1000 µg/mL (≈ 1840 µM); against Candida albicans it was 500 µg/mL (≈ 922 µM); in the assay with Streptococcus pyogenes, 250 µg/mL (≈ 461 µM); against Staphylococcus aureus, 250 µg/mL (≈ 461 µM); against Pseudomonas aeruginosa it was 250 µg/mL (≈ 461 µM). Further, in the assay on Escherichia coli, the MIC99 came out at 250 µg/mL (≈ 461 µM).
Regarding `C/C(=N\n1c(/N=C/c2ccccc2Cl)c(C#N)c(-c2ccccc2O)c(C#N)c1=O)c1nc2ccccc2[nH]1`, the MIC99 is 1000 µg/mL (≈ 1880 µM) against Aspergillus clavatus; 100 µg/mL (≈ 188 µM) in the assay on Aspergillus niger; 1000 µg/mL (≈ 1880 µM) against Candida albicans; 250 µg/mL (≈ 470 µM) in the assay with Streptococcus pyogenes; 100 µg/mL (≈ 188 µM) against Staphylococcus aureus; 25 µg/mL (≈ 47 µM) in the assay on Pseudomonas aeruginosa. The MIC99 in the assay on Escherichia coli was found to be 250 µg/mL (≈ 470 µM).
Take `C/C(=N\n1c(/N=C/c2ccc(Cl)cc2)c(C#N)c(-c2ccccc2O)c(C#N)c1=O)c1nc2ccccc2[nH]1`: the MIC99 with Aspergillus clavatus came out at 1000 µg/mL (≈ 1880 µM); in the assay on Aspergillus niger it was 1000 µg/mL (≈ 1880 µM); in the assay on Candida albicans, 500 µg/mL (≈ 940 µM); with Streptococcus pyogenes, 250 µg/mL (≈ 470 µM); with Staphylococcus aureus, 100 µg/mL (≈ 188 µM); with Pseudomonas aeruginosa, 250 µg/mL (≈ 470 µM). Further, the MIC99 against Escherichia coli worked out at 100 µg/mL (≈ 188 µM).
As for `C/C(=N\n1c(/N=C/c2ccc(N(C)C)cc2)c(C#N)c(-c2ccccc2O)c(C#N)c1=O)c1nc2ccccc2[nH]1`, the MIC99 against Aspergillus clavatus stood at 500 µg/mL (≈ 925 µM); in the assay with Aspergillus niger, 500 µg/mL (≈ 925 µM); in the assay on Candida albicans, 200 µg/mL (≈ 370 µM); against Streptococcus pyogenes, 100 µg/mL (≈ 185 µM); against Staphylococcus aureus, 100 µg/mL (≈ 185 µM); in the assay with Pseudomonas aeruginosa, 100 µg/mL (≈ 185 µM). In addition, the MIC99 in the assay on Escherichia coli is 62.5 µg/mL (≈ 116 µM).
As to `COc1cc(/C=N/c2c(C#N)c(-c3ccccc3O)c(C#N)c(=O)n2/N=C(\C)c2nc3ccccc3[nH]2)ccc1O`, the MIC99 came out at 1000 µg/mL (≈ 1840 µM) against Aspergillus clavatus; 1000 µg/mL (≈ 1840 µM) in the assay with Aspergillus niger; 1000 µg/mL (≈ 1840 µM) with Candida albicans; 250 µg/mL (≈ 460 µM) in the assay with Streptococcus pyogenes; 250 µg/mL (≈ 460 µM) in the assay with Staphylococcus aureus; 100 µg/mL (≈ 184 µM) with Pseudomonas aeruginosa. The same molecule showed an MIC99 in the assay with Escherichia coli of 200 µg/mL (≈ 368 µM).
As to `COc1cc(/C=N/c2c(C#N)c(-c3ccccc3O)c(C#N)c(=O)n2/N=C(\C)c2nc3ccccc3[nH]2)cc(OC)c1OC`, the MIC99 against Aspergillus clavatus is 100 µg/mL (≈ 170 µM); in the assay on Aspergillus niger, 1000 µg/mL (≈ 1700 µM); in the assay on Candida albicans it was 1000 µg/mL (≈ 1700 µM); in the assay with Streptococcus pyogenes it was 500 µg/mL (≈ 851 µM); against Staphylococcus aureus it was 250 µg/mL (≈ 425 µM); against Pseudomonas aeruginosa it was 250 µg/mL (≈ 425 µM). Also, the MIC99 in the assay on Escherichia coli is 200 µg/mL (≈ 340 µM).
Turning to `C/C(=N\n1c(/N=C/c2ccccc2)c(C#N)c(-c2ccccc2O)c(C#N)c1=O)c1nc2ccccc2[nH]1`, the MIC99 was found to be 200 µg/mL (≈ 402 µM) in the assay with Aspergillus clavatus; 100 µg/mL (≈ 201 µM) against Aspergillus niger; 200 µg/mL (≈ 402 µM) in the assay on Candida albicans; 100 µg/mL (≈ 201 µM) against Streptococcus pyogenes; 250 µg/mL (≈ 502 µM) against Staphylococcus aureus; 50 µg/mL (≈ 100 µM) in the assay on Pseudomonas aeruginosa. In addition, the MIC99 in the assay with Escherichia coli came out at 100 µg/mL (≈ 201 µM).
For `C/C(=N\n1c(/N=C/c2ccccc2O)c(C#N)c(-c2ccccc2O)c(C#N)c1=O)c1nc2ccccc2[nH]1`, the MIC99 against Aspergillus clavatus was 1000 µg/mL (≈ 1950 µM); against Aspergillus niger, 1000 µg/mL (≈ 1950 µM); against Candida albicans it was 500 µg/mL (≈ 974 µM); in the assay on Streptococcus pyogenes it was 200 µg/mL (≈ 389 µM); with Staphylococcus aureus it was 200 µg/mL (≈ 389 µM); against Pseudomonas aeruginosa, 150 µg/mL (≈ 292 µM). The same molecule displayed an MIC99 against Escherichia coli of 150 µg/mL (≈ 292 µM).
For the molecule `C/C(=N\n1c(/N=C/c2cccc(O)c2)c(C#N)c(-c2ccccc2O)c(C#N)c1=O)c1nc2ccccc2[nH]1`, the MIC99 in the assay on Aspergillus clavatus was found to be 1000 µg/mL (≈ 1950 µM); against Aspergillus niger it was 1000 µg/mL (≈ 1950 µM); against Candida albicans, 500 µg/mL (≈ 974 µM); in the assay on Streptococcus pyogenes, 500 µg/mL (≈ 974 µM); in the assay on Staphylococcus aureus, 200 µg/mL (≈ 389 µM); against Pseudomonas aeruginosa it was 250 µg/mL (≈ 487 µM). For the same molecule, the MIC99 in the assay on Escherichia coli turned out to be 250 µg/mL (≈ 487 µM).
`C/C(=N\n1c(/N=C/c2ccc(O)cc2)c(C#N)c(-c2ccccc2O)c(C#N)c1=O)c1nc2ccccc2[nH]1`: the MIC99 came to 100 µg/mL (≈ 195 µM) against Aspergillus clavatus; 1000 µg/mL (≈ 1950 µM) with Aspergillus niger; 500 µg/mL (≈ 974 µM) in the assay with Candida albicans; 50 µg/mL (≈ 97.4 µM) against Streptococcus pyogenes; 250 µg/mL (≈ 487 µM) in the assay with Staphylococcus aureus; 150 µg/mL (≈ 292 µM) in the assay with Pseudomonas aeruginosa. For the same molecule, the MIC99 against Escherichia coli stood at 150 µg/mL (≈ 292 µM).
For `CC1(C)S[C@@H]2[C@H](NC(=O)[C@H](N)c3ccccc3)C(=O)N2[C@H]1C(=O)O` [AMPICILLIN], the MIC99 was 100 µg/mL (≈ 286 µM) against Streptococcus pyogenes, 250 µg/mL (≈ 715 µM) in the assay on Staphylococcus aureus, 100 µg/mL (≈ 286 µM) against Pseudomonas aeruginosa and 100 µg/mL (≈ 286 µM) in the assay with Escherichia coli.
Regarding `COC1=CC(=O)C[C@@H](C)[C@]12Oc1c(Cl)c(OC)cc(OC)c1C2=O` [GRISEOFULVIN], the MIC99 against Aspergillus clavatus turned out to be 100 µg/mL (≈ 283 µM); in the assay with Aspergillus niger it was 100 µg/mL (≈ 283 µM); in the assay on Candida albicans it was 500 µg/mL (≈ 1420 µM).
